Bridge positions count the residues as written; N and C are the ends. Square brackets hold non-standard residues; d marks the D form. Peptide text beside a SMILES is read from it. * marks the point of attachment. Phe(3-CF3) = N[C@@H](Cc1cccc(C(F)(F)F)c1)C(=O)O; Ala(morpholin-4-yl) = N[C@@H](CN1CCOCC1)C(=O)O; Phe(4-COOH) = N[C@@H](Cc1ccc(C(=O)O)cc1)C(=O)O; Bip = N[C@@H](Cc1ccc(-c2ccccc2)cc1)C(=O)O; NH(CH2)14COOH = O=C(O)CCCCCCCCCCCCCCN*; Phe(3-Me) = Cc1cccc(C[C@H](N)C(=O)O)c1; NH(CH2)12COOH = O=C(O)CCCCCCCCCCCCN*; Val(3-OH) = CC(C)(O)[C@H](N)C(=O)O; Cha = N[C@@H](CC1CCCCC1)C(=O)O; PEG4 = NCCOCCOCCOCCOCCC(=O)O; Carboxymethyl = O=C(O)C*; Nle = CCCC[C@H](N)C(=O)O; Orn = NCCC[C@H](N)C(=O)O; Dab = NCC[C@H](N)C(=O)O; Nva = CCC[C@H](N)C(=O)O; AEEA = NCCOCCOCC(=O)O
Each compound was assayed against T1, PD-1/PD-L1 interaction (PE-labeled human PD-L1-Ig binding to Jurkat cell line over-expressing human PD-1) (Homo sapiens, UniProt Q15116) (assay: Jurkat-PD-1 Cell Binding High-Content Screening Assay (CBA)). Conditions: Jurkat cell line over-expressing human PD-1; PE-labeled PD-L1-Ig 20 nM final; read-out: Jurkat hPD1-PDL1 IC50.
T1 construct: expressed in transfected cells; host or cells: Jurkat
T1 sequence (Q15116 25-288): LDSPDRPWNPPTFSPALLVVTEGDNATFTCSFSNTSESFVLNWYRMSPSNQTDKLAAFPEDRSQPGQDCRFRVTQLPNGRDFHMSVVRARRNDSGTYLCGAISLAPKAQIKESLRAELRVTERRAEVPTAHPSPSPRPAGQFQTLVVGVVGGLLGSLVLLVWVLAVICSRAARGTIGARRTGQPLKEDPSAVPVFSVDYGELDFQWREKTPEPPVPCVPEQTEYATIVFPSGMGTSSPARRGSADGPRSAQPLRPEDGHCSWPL
Assay type: cell-based
Method in brief: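 Jurkat-hPD-1 cells, DMEM/10% FCS; cpd 2 h 37° C; PE-PD-L1-Ig 20 nM final, 1 h; 4% PFA fix + Hoechst 33342, 3× dPBS wash; high-content imaging read-out.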
`Cc1cccc(C[C@@H]2NC(=O)[C@H](CC(=O)O)NC(=O)[C@H](Cc3ccc(C(=O)O)cc3)NC(=O)[C@H](CN3CCOCC3)NC(=O)CSC[C@@H](C(=O)N[C@@H](CCN)C(=O)NCCOCCOCC(=O)NCCOCCOCC(=O)NCCCCCCCCCCCCC(=O)O)NC(=O)[C@H](CO)NC(=O)[C@H](C(C)(C)O)NC(=O)[C@H](CC3CCCCC3)NC(=O)[C@H](CCN)NC(=O)[C@@H](CC(C)C)NC(=O)[C@H](CCCN)NC(=O)[C@H](Cc3ccc(C(=O)O)cc3)NC(=O)[C@H](Cc3ccc(-c4ccccc4)cc3)NC(=O)[C@H](Cc3ccc(C(=O)O)cc3)NC2=O)c1` [Compound 2900] ({CH2CO}-[Ala(morpholin-4-yl)][Phe(4-COOH)]D[Phe(3-Me)][Phe(4-COOH)][Bip][Phe(4-COOH)][Orn][dL][Dab][Cha][Val(3-OH)]SC[Dab][AEEA][AEEA]-{NH(CH2)12COOH}; thioether N-14) was tested, and the IC50 was 0.0062 µM. `CCC[C@@H]1NC(=O)CSC[C@@H](C(=O)N[C@@H](CCN)C(=O)NCCOCCOCCOCCOCCC(=O)NCCCCCCCCCCCCC(=O)O)NC(=O)[C@H](CO)NC(=O)[C@H](C(C)(C)O)NC(=O)[C@H](CC2CCCCC2)NC(=O)[C@H](CCN)NC(=O)[C@@H](CC(C)C)NC(=O)[C@H](CCCN)NC(=O)[C@H](Cc2ccc(OCC(=O)O)cc2)NC(=O)[C@H](Cc2ccc(-c3ccccc3)cc2)NC(=O)[C@H](Cc2ccc(OCC(=O)O)cc2)NC(=O)[C@H](Cc2cccc(C(F)(F)F)c2)NC(=O)[C@H](CC(=O)O)NC(=O)[C@H](Cc2ccc(C(=O)O)cc2)NC1=O` [Compound 2901] ({CH2CO}-[Nva][Phe(4-COOH)]D[Phe(3-CF3)]Y(Carboxymethyl)[Bip]Y(Carboxymethyl)[Orn][dL][Dab][Cha][Val(3-OH)]SC[Dab][PEG4]-{NH(CH2)12COOH}; thioether N-14) was tested, and the IC50 was 0.0241 µM. In the case of `CCC[C@@H]1NC(=O)CSC[C@@H](C(=O)N[C@@H](CCN)C(=O)NCCOCCOCCOCCOCCC(=O)NCCCCCCCCCCCCCCC(=O)O)NC(=O)[C@H](CO)NC(=O)[C@H](C(C)(C)O)NC(=O)[C@H](CC2CCCCC2)NC(=O)[C@H](CCN)NC(=O)[C@@H](CC(C)C)NC(=O)[C@H](CCCN)NC(=O)[C@H](Cc2ccc(OCC(=O)O)cc2)NC(=O)[C@H](Cc2ccc(-c3ccccc3)cc2)NC(=O)[C@H](Cc2ccc(OCC(=O)O)cc2)NC(=O)[C@H](Cc2cccc(C(F)(F)F)c2)NC(=O)[C@H](CC(=O)O)NC(=O)[C@H](Cc2ccc(C(=O)O)cc2)NC1=O` [Compound 2902] ({CH2CO}-[Nva][Phe(4-COOH)]D[Phe(3-CF3)]Y(Carboxymethyl)[Bip]Y(Carboxymethyl)[Orn][dL][Dab][Cha][Val(3-OH)]SC[Dab][PEG4]-{NH(CH2)14COOH}; thioether N-14), the IC50 is reported as 0.282 µM. `CCC[C@@H]1NC(=O)CSC[C@@H](C(=O)N[C@@H](CCN)C(=O)NCCCCCCCCCCCCC(=O)O)NC(=O)[C@H](CO)NC(=O)[C@H](C(C)(C)O)NC(=O)[C@H](CC2CCCCC2)NC(=O)[C@H](CCN)NC(=O)[C@@H](CC(C)C)NC(=O)[C@H](CCCN)NC(=O)[C@H](Cc2ccc(OCC(=O)O)cc2)NC(=O)[C@H](Cc2ccc(-c3ccccc3)cc2)NC(=O)[C@H](Cc2ccc(OCC(=O)O)cc2)NC(=O)[C@H](Cc2cccc(C(F)(F)F)c2)NC(=O)[C@H](CC(=O)O)NC(=O)[C@H](Cc2ccc(C(=O)O)cc2)NC1=O` [Compound 2903] ({CH2CO}-[Nva][Phe(4-COOH)]D[Phe(3-CF3)]Y(Carboxymethyl)[Bip]Y(Carboxymethyl)[Orn][dL][Dab][Cha][Val(3-OH)]SC[Dab]-{NH(CH2)12COOH}; thioether N-14) showed an IC50 of 0.0277 µM. For `CCC[C@@H]1NC(=O)CSC[C@@H](C(=O)N[C@@H](CCN)C(=O)NCCCCCCCCCCCCCCC(=O)O)NC(=O)[C@H](CO)NC(=O)[C@H](C(C)(C)O)NC(=O)[C@H](CC2CCCCC2)NC(=O)[C@H](CCN)NC(=O)[C@@H](CC(C)C)NC(=O)[C@H](CCCN)NC(=O)[C@H](Cc2ccc(OCC(=O)O)cc2)NC(=O)[C@H](Cc2ccc(-c3ccccc3)cc2)NC(=O)[C@H](Cc2ccc(OCC(=O)O)cc2)NC(=O)[C@H](Cc2cccc(C(F)(F)F)c2)NC(=O)[C@H](CC(=O)O)NC(=O)[C@H](Cc2ccc(C(=O)O)cc2)NC1=O` [Compound 2904] ({CH2CO}-[Nva][Phe(4-COOH)]D[Phe(3-CF3)]Y(Carboxymethyl)[Bip]Y(Carboxymethyl)[Orn][dL][Dab][Cha][Val(3-OH)]SC[Dab]-{NH(CH2)14COOH}; thioether N-14), the IC50 was 0.518 µM. Work on `COC[C@@H]1NC(=O)CSC[C@@H](C(=O)N[C@@H](CCN)C(=O)NCCOCCOCCOCCOCCC(=O)NCCCCCCCCCCCCC(=O)O)NC(=O)[C@H](CO)NC(=O)[C@H](C(C)(C)O)NC(=O)[C@H](CC2CCCCC2)NC(=O)[C@H](CCN)NC(=O)[C@@H](CC(C)C)NC(=O)[C@H](CCCN)NC(=O)[C@H](Cc2ccc(C(=O)O)cc2)NC(=O)[C@H](Cc2ccc(-c3ccccc3)cc2)NC(=O)[C@H](Cc2ccc(C(=O)O)cc2)NC(=O)[C@H](Cc2cccc(C(F)(F)F)c2)NC(=O)[C@H](CC(=O)O)NC(=O)[C@H](Cc2ccc(OCC(=O)O)cc2)NC1=O` [Compound 2905] ({CH2CO}-S(Me)Y(Carboxymethyl)D[Phe(3-CF3)][Phe(4-COOH)][Bip][Phe(4-COOH)][Orn][dL][Dab][Cha][Val(3-OH)]SC[Dab][PEG4]-{NH(CH2)12COOH}; thioether N-14) yielded an IC50 of 0.0706 µM. `CCC[C@@H]1NC(=O)CSC[C@@H](C(=O)N[C@@H](CCN)C(=O)NCCOCCOCCOCCOCCC(=O)NCCCCCCCCCCCCCCC(=O)O)NC(=O)[C@H](CO)NC(=O)[C@H](C(C)(C)O)NC(=O)[C@H](CC2CCCCC2)NC(=O)[C@H](CCN)NC(=O)[C@@H](CC(C)C)NC(=O)[C@H](CCCN)NC(=O)[C@H](Cc2ccc(C(=O)O)cc2)NC(=O)[C@H](Cc2ccc(-c3ccccc3)cc2)NC(=O)[C@H](Cc2ccc(C(=O)O)cc2)NC(=O)[C@H](Cc2cccc(C(F)(F)F)c2)NC(=O)[C@H](CC(=O)O)NC(=O)[C@H](Cc2ccc(OCC(=O)O)cc2)NC1=O` [Compound 2906] ({CH2CO}-[Nva]Y(Carboxymethyl)D[Phe(3-CF3)][Phe(4-COOH)][Bip][Phe(4-COOH)][Orn][dL][Dab][Cha][Val(3-OH)]SC[Dab][PEG4]-{NH(CH2)14COOH}; thioether N-14) was tested, and the IC50 was 0.0977 µM. Compound `COC[C@@H]1NC(=O)CSC[C@@H](C(=O)N[C@@H](CCN)C(=O)NCCCCCCCCCCCCC(=O)O)NC(=O)[C@H](CO)NC(=O)[C@H](C(C)(C)O)NC(=O)[C@H](CC2CCCCC2)NC(=O)[C@H](CCN)NC(=O)[C@@H](CC(C)C)NC(=O)[C@H](CCCN)NC(=O)[C@H](Cc2ccc(C(=O)O)cc2)NC(=O)[C@H](Cc2ccc(-c3ccccc3)cc2)NC(=O)[C@H](Cc2ccc(C(=O)O)cc2)NC(=O)[C@H](Cc2cccc(C(F)(F)F)c2)NC(=O)[C@H](CC(=O)O)NC(=O)[C@H](Cc2ccc(OCC(=O)O)cc2)NC1=O` [Compound 2907] ({CH2CO}-S(Me)Y(Carboxymethyl)D[Phe(3-CF3)][Phe(4-COOH)][Bip][Phe(4-COOH)][Orn][dL][Dab][Cha][Val(3-OH)]SC[Dab]-{NH(CH2)12COOH}; thioether N-14) has an IC50 of 0.0418 µM. `COC[C@@H]1NC(=O)CSC[C@@H](C(=O)N[C@@H](CCN)C(=O)NCCCCCCCCCCCCCCC(=O)O)NC(=O)[C@H](CO)NC(=O)[C@H](C(C)(C)O)NC(=O)[C@H](CC2CCCCC2)NC(=O)[C@H](CCN)NC(=O)[C@@H](CC(C)C)NC(=O)[C@H](CCCN)NC(=O)[C@H](Cc2ccc(C(=O)O)cc2)NC(=O)[C@H](Cc2ccc(-c3ccccc3)cc2)NC(=O)[C@H](Cc2ccc(C(=O)O)cc2)NC(=O)[C@H](Cc2cccc(C(F)(F)F)c2)NC(=O)[C@H](CC(=O)O)NC(=O)[C@H](Cc2ccc(OCC(=O)O)cc2)NC1=O` [Compound 2908] ({CH2CO}-S(Me)Y(Carboxymethyl)D[Phe(3-CF3)][Phe(4-COOH)][Bip][Phe(4-COOH)][Orn][dL][Dab][Cha][Val(3-OH)]SC[Dab]-{NH(CH2)14COOH}; thioether N-14) was tested, and the IC50 was 0.541 µM. For `CCCC[C@@H]1NC(=O)CSC[C@@H](C(=O)N[C@@H](CCN)C(=O)NCCOCCOCC(=O)NCCOCCOCC(=O)NCCCCCCCCCCCCC(=O)O)NC(=O)[C@H](CO)NC(=O)[C@H](C(C)(C)O)NC(=O)[C@H](CC2CCCCC2)NC(=O)[C@H](CCN)NC(=O)[C@@H](CC(C)C)NC(=O)[C@H](CCCN)NC(=O)[C@H](Cc2ccc(C(=O)O)cc2)NC(=O)[C@H](Cc2ccc(-c3ccccc3)cc2)NC(=O)[C@H](Cc2ccc(C(=O)O)cc2)NC(=O)[C@H](Cc2cccc(C(F)(F)F)c2)NC(=O)[C@H](CC(=O)O)NC(=O)[C@H](Cc2ccc(OCC(=O)O)cc2)NC1=O` [Compound 2909] ({CH2CO}-[Nle]Y(Carboxymethyl)D[Phe(3-CF3)][Phe(4-COOH)][Bip][Phe(4-COOH)][Orn][dL][Dab][Cha][Val(3-OH)]SC[Dab][AEEA][AEEA]-{NH(CH2)12COOH}; thioether N-14), the IC50 was 0.0182 µM. `CCCC[C@@H]1NC(=O)CSC[C@@H](C(=O)N[C@@H](CCN)C(=O)NCCOCCOCCOCCOCCC(=O)NCCCCCCCCCCCCC(=O)O)NC(=O)[C@H](CO)NC(=O)[C@H](C(C)(C)O)NC(=O)[C@H](CC2CCCCC2)NC(=O)[C@H](CCN)NC(=O)[C@@H](CC(C)C)NC(=O)[C@H](CCCN)NC(=O)[C@H](Cc2ccc(C(=O)O)cc2)NC(=O)[C@H](Cc2ccc(-c3ccccc3)cc2)NC(=O)[C@H](Cc2ccc(C(=O)O)cc2)NC(=O)[C@H](Cc2cccc(C(F)(F)F)c2)NC(=O)[C@H](CC(=O)O)NC(=O)[C@H](Cc2ccc(OCC(=O)O)cc2)NC1=O` [Compound 2911] ({CH2CO}-[Nle]Y(Carboxymethyl)D[Phe(3-CF3)][Phe(4-COOH)][Bip][Phe(4-COOH)][Orn][dL][Dab][Cha][Val(3-OH)]SC[Dab][PEG4]-{NH(CH2)12COOH}; thioether N-14) showed an IC50 of 0.0349 µM.
